Reference: ChEMBL document CHEMBL5143510, “Structure modification and biological evaluation of indole-chalcone derivatives as anti-tumor agents through dual targeting tubulin and TrxR” (Eur J Med Chem, 2022)
Calls of active or inactive are those of the source. No cut-off for these calls is given here.

Assays:
[1] = Cytotoxicity against human HLF cells assessed as reduction in cell viability incubated for 48 hrs by MTT assay; assay type: toxicity, cell-based
MHCC97H [2] = assay: Downregulation of TrxR in human MHCC97H cells at 5 to 50 nM incubated for 48 hrs by Western blot analysis; assay type: functional, cell-based; details: dose 5-50 nM
MHCC97H [3] = assay: Induction of apoptosis in human MHCC97H cells assessed as upregulation of Bad expression measured after 24 to 48 hrs by Western blot analysis; assay type: functional, cell-based; details: dose 5-50 nM, time 24-48 hrs, DDE = dose-dependent effect
Tubulin (Homo sapiens) [4] = target: T1, Tubulin (Homo sapiens) (UniProt P68371+Q9H4B7+P0DPH7+P68366+Q13509+Q71U36+P04350+Q3ZCM7+P07437+P68363+Q9BQE3+Q6PEY2+Q13885+Q9BVA1+Q9BUF5); assay: Inhibition of colchicine binding to tubulin (unknown origin) at 5.0 uM by competitive binding assay relative to control; assay type: protein-complex assay
MHCC97H [5] = assay: Induction of morphological changes in human MHCC97H cells assessed as cell rounding at 5 to 50 nM incubated for 48 hrs by phase contrast microscopic analysis; assay type: functional, cell-based; details: dose 5-50 nM
HCT-8/VCR = assay: Downregulation of TrxR in vincristine resistant human HCT-8/VCR cells at 10 to 50 nM incubated for 48 hrs by Western blot analysis; assay type: functional, cell-based; details: dose 10-50 nM
MHCC97H [6] = assay: Induction of apoptosis in human MHCC97H cells assessed as increase in total apoptotic cells incubated for 24 to 48 hrs by Annexin V-FITC/PI staining based flow cytometry method; assay type: functional, cell-based; details: dose 5-50 nM, time 24-48 hrs, DDE = dose-dependent effect
MHCC97H [7] = assay: Induction of apoptosis in human MHCC97H cells assessed as decrease in MMP level incubated for 24 hrs by JC-1 staining based fluorescence microscopy; assay type: functional, cell-based; details: dose 5-50 nM, DDE = dose-dependent effect
MHCC97H [8] = assay: Induction of oxidative stress in human MHCC97H cells assessed as increase in superoxide anion level at 5 to 50 nM incubated for 4 hrs by DHE based fluorescence microscopy; assay type: functional, cell-based; details: dose 5-50 nM
HeLa = assay: Antiproliferative activity against human HeLa cells assessed as reduction in cell viability incubated for 48 hrs by MTT assay; assay type: functional, cell-based
[9] = Toxicity in BALB/c mouse xenografted with human MHCC97H cells assessed as change in body weight at 30 mg/kg, ip administered every other day for 30 days; assay type: organism-based; details: in vivo, 720 h, time 30 day
MHCC97H [10] = assay: Antitumor activity against human MHCC97H cells xenografted in BALB/c mouse assessed as tumor volume at 30 mg/kg, ip administered every other day for 30 days; assay type: functional; details: time 30 day
[11] = Resistance index, ratio of IC50 for antiproliferative activity against vincristine resistant human HCT-8/VCR cells to IC50 for antiproliferative activity against human HCT-8 cells; assay type: functional
Homo sapiens = organism: Homo sapiens; assay: Irreversible inhibition of TrxR (unknown origin) using DTNB as substrate at 5 uM incubated for 2 hrs in presence of NADPH followed by substrate addition ultrafiltration based microplate reader analysis relative to control
Tubulin (Homo sapiens) [12] = target: T1, Tubulin (Homo sapiens); assay: Disruption of microtubule network in human MHCC97H cells assessed as shrunken morphology at 5 to 50 nM incubated for 24 hrs by Hoechst 33342 staining based confocal microscopy; assay type: cell-based; details: dose 5-50 nM
MHCC97H [13] = assay: Induction of apoptosis in human MHCC97H cells assessed as nucleus shrinkage at 5 to 50 nM incubated for 24 hrs by Hoechst 33342 staining based fluorescence microscopy; assay type: functional, cell-based; details: dose 5-50 nM
HCT-8 = assay: Antiproliferative activity against human HCT-8 cells assessed as reduction in cell viability incubated for 48 hrs by MTT assay; assay type: functional, cell-based; details: HCT-8, 48 h
[14] = Selectivity ratio, ratio of IC50 for cytotoxicity against human HLF cells to IC50 for antiproliferative activity against human MHCC97H cells; assay type: toxicity, cell-based; details: HLF cells versus MHCC97H cells, read-out: Ratio IC50
[15] = Selectivity ratio, ratio of IC50 for cytotoxicity against human MCF-10A cells to IC50 for antiproliferative activity against human MHCC97H cells; assay type: toxicity, cell-based; details: MCF-10A cells versus MHCC97H cells, read-out: Ratio IC50
[16] = Cytotoxicity against human MCF-10A cells assessed as reduction in cell viability incubated for 48 hrs by MTT assay; assay type: toxicity, cell-based
MHCC97H [17] = assay: Induction of morphological changes in human MHCC97H cells assessed as loss of adherent property at 5 to 50 nM incubated for 48 hrs by phase contrast microscopic analysis; assay type: functional, cell-based; details: dose 5-50 nM
MHCC97H [18] = assay: Antiproliferative activity against human MHCC97H cells assessed as reduction in cell viability incubated for 48 hrs by MTT assay; assay type: functional, cell-based
MHCC97H [19] = assay: Induction of apoptosis in human MHCC97H cells assessed as decrease in MMP level incubated for 24 hrs by JC-1 staining based flow cytometry; assay type: functional, cell-based; details: dose 5-50 nM, DDE = dose-dependent effect
Tubulin (Homo sapiens) [20] = target: T1, Tubulin (Homo sapiens); assay: Inhibition of colchicine binding to tubulin (unknown origin) at 0.625 uM by competitive binding assay relative to control; assay type: protein-complex assay
Tubulin (Homo sapiens) [21] = target: T1, Tubulin (Homo sapiens); assay: Inhibition of colchicine binding to tubulin (unknown origin) at 0.156 uM by competitive binding assay relative to control; assay type: protein-complex assay
MHCC97H [22] = assay: Induction of morphological changes in human MHCC97H cells assessed as membrane blebbing at 5 to 50 nM incubated for 48 hrs by phase contrast microscopic analysis; assay type: functional, cell-based; details: dose 5-50 nM
[23] = Antiproliferative activity against vincristine resistant human HCT-8/VCR cells assessed as reduction in cell viability incubated for 48 hrs by MTT assay; assay type: functional, cell-based
Tubulin (Homo sapiens) [24] = target: T1, Tubulin (Homo sapiens); assay: Inhibition of colchicine binding to tubulin (unknown origin) at 2.50 uM by competitive binding assay relative to control; assay type: protein-complex assay; details: dose 2.5 µM
HUVEC = assay: Induction of morphological changes in human HUVEC cells assessed as loss of cell interactions at 50 nM incubated for 48 hrs by phase contrast microscopic analysis; assay type: toxicity, cell-based; details: 0.05 µM
Tubulin (Homo sapiens) [25] = target: T1, Tubulin (Homo sapiens); assay: Induction of microtubule disruption in human MHCC97H cells assessed as occurence of cell shrinkage at 10 nM incubated for 8 hrs followed by compound washout and measured after 24 hrs by immunofluorescence based confocal microscopic analysis
[26] = Selectivity ratio, ratio of IC50 for cytotoxicity against human HUVEC cells to IC50 for antiproliferative activity against human MHCC97H cells; assay type: toxicity, cell-based; details: HUVEC cells versus MHCC97H cells, read-out: Ratio IC50
MHCC97H [27] = assay: Antitumor activity against human MHCC97H cells xenografted in BALB/c mouse assessed as tumor weight at 30 mg/kg, ip administered every other day for 30 days; assay type: functional; details: time 30 day
Tubulin [28] = assay: Inhibition of tubulin polymerization (unknown origin) assessed as decrease in fluorescence intensity incubated for 90 mins by DAPI staining based microplate reader analysis; assay type: protein-complex assay, Homo sapiens
Tubulin [29] = assay: Inhibition of colchicine binding to tubulin (unknown origin) by competitive binding assay; assay type: protein-complex assay, Homo sapiens
MHCC97H [30] = assay: Induction of apoptosis in human MHCC97H cells assessed as downregulation of Bcl-xl expression at 5 to 50 nM measured after 24 to 48 hrs by Western blot analysis; assay type: functional, cell-based; details: dose 5-50 nM, time 24-48 hrs
Tubulin (Homo sapiens) [31] = target: T1, Tubulin (Homo sapiens); assay: Inhibition of colchicine binding to tubulin (unknown origin) at 0.312 uM by competitive binding assay relative to control; assay type: protein-complex assay

## COc1ccc2c(/C=C(\C)C(=O)c3cc(OC)c(OC)c([Se]C)c3)c[nH]c2c1
[1]
  IC50 at 48 h: 2.37 µM
MHCC97H [2]
  Activity: Active
MHCC97H [3]
  Activity: Dde
Tubulin (Homo sapiens) [4]
  inhibition: 86.8%
MHCC97H [5]
  Activity: Active
HCT-8/VCR
  Activity: Active
MHCC97H [6]
  Activity: Dde
MHCC97H [7]
  Activity: Dde
MHCC97H [8]
  Activity: Active
HeLa
  IC50: 0.021 µM
[9]
  Activity: Non-Toxic
MHCC97H [10]
  Activity: 419.7 mm3
[11]
  Ratio IC50: 1.56
Homo sapiens
  inhibition: 84%
Tubulin (Homo sapiens) [12]
  Activity: Active
MHCC97H [13]
  Activity: Active
HCT-8
  IC50: 0.029 µM
[14]
  selectivity ratio: 394
[15]
  selectivity ratio: 121
[16]
  IC50 at 48 h: 0.723 µM
MHCC97H [17]
  Activity: Active
MHCC97H [18]
  IC50: 0.006 µM
MHCC97H [19]
  Activity: Dde
Tubulin (Homo sapiens) [20]
  inhibition: 45%
Tubulin (Homo sapiens) [21]
  inhibition: 24.9%
MHCC97H [22]
  Activity: Active
[23]
  IC50: 0.045 µM
Tubulin (Homo sapiens) [24]
  inhibition: 46.7%
HUVEC
  Activity: Toxic
Tubulin (Homo sapiens) [25]
  Activity: Active
[26]
  selectivity ratio: 9.33
MHCC97H [27]
  Activity: 0.453 g
Tubulin [28]
  IC50: 0.81 µM
Tubulin [29]
  IC50: 1.3 µM
MHCC97H [30]
  Activity: Active
Tubulin (Homo sapiens) [31]
  inhibition: 30.7%
